Read-outs that look alike come from different tables or passages of the source. Marks after values point to notes of the source that are not given here. Blank lines part the entries; values can stand above or below the compound they belong to.
Experiments:
[1] = system: neurons; settings: Kusuma (2012); cited from earlier work
[2] = system: Hsp90; settings: Kusuma (2012) and Ma (2015); cited from earlier work
[3] = in vivo; settings: male, C57BL/6, mouse, po, 1000 mg/kg
Experimental: Blood samples for plasma isolation were collected at 0.25, 0.5, 1, 2, 4, 8, and 24 hours post-dose, using a separate group (n=5/group/time point) of mice for each time point, as summarized in Table 14 below. Plasma samples were analyzed for concentrations of 4a by LC/MS/MS methodology as described below.
4a was extracted from K3EDTA-fortified plasma samples using a protein precipitation method. In a well of a polypropylene microplate (96-well), 20 μL of a 2.5-ng/mL D3-4a (internal standard, IS) solution prepared in acetonitrile/H2O (1:1) was added, followed by addition of 20 μL of plasma sample. The plate was sealed with sealing tape (Phenomenex, AH0-7362) and gently mixed with a vortex-mixer for 1 minute. The solution was pipetted into a well of a polypropylene plate (96-well, 2 mL, Phenomenex, AH0-7194) that contained 500 μL of methanol. The plate was sealed and vortex-mixed for 5 minutes followed by centrifugation at 3000×g for 3 minutes at room temperature. A 300-μL aliquot of the supernatant was transferred to a new well that contained 300 μL of deionized water. After gentle mixing, the plate was sealed and placed in an LC autosampler maintained at 12° C., and a 10-μL aliquot was injected into an LC/MS/MS system for quantitative analysis of 4a.
Liquid chromatographic separation of 4a was achieved by a reversed-phase analytical column with mobile phase solution containing H2O, acetonitrile, and formic acid. The chromatographed analyte was detected by a Waters Xevo TQ-S triple quadrupole mass spectrometer operating in multiple-reaction-monitoring (MRM) mode. Chromatographed peak areas for quality control samples, calibration standards, and study samples were integrated using MassLynx software V4.1 (Waters Corp.).
Pharmacokinetic parameter estimates were obtained from non-compartmental analysis of the mean 4a plasma concentration-time data for each dose group using WinNonlin™ software version 6.3 (Pharsight Corp., Cary, N.C.). […] The time of the last measurable concentration was defined as the time after which 4a concentrations were below the limit of quantitation (BLQ) in the majority of animals for each dose group.

[4] = Systemic exposure to 4a after single oral gavage (suspension) or loose-filled capsule in monkeys (plasma LC/MS/MS, PK); type: in vivo, male cynomolgus monkeys; settings: for AUC(0-t): read-out: AUC(0-t), mean (±SD); for Cmax: read-out: Cmax, mean (±SD); for Tmax: read-out: Tmax (median)
Experimental: Dosing of Material A accounted for the presence of proline on a weight basis. Blood samples for plasma isolation were collected at […], 0.5, 1, 2, 4, 8, 12, and 24 hours post-dose from each monkey.

[5] = as above; type: in vivo; settings: male, cynomolgus, cynomolgus monkey, oral gavage suspension 30 mg/kg, 0.25 hr, read-out: 4a Plasma Concentration, mean (±SD)
[6] = male, cynomolgus, cynomolgus monkey, plasma, oral gavage suspension 30 mg/kg, read-out: 4a Plasma Concentration, mean (±SD)
[7] = male, cynomolgus, cynomolgus monkey, plasma, oral gavage suspension 30 mg/kg
[8] = male, cynomolgus, cynomolgus monkey, plasma, oral, capsule 50 mg, read-out: 4a Plasma Concentration, mean (±SD)
[9] = male, cynomolgus, cynomolgus monkey, plasma, oral, capsule 50 mg, BLQ values included as 1/2 LLOQ (0.200 ng/mL), read-out: 4a Plasma Concentration, mean (±SD)
[10] = male, cynomolgus, cynomolgus monkey, plasma, po, 50 mg capsule

Compound: CO[C@@H]1[C@@H](O)[C@@H](O)C(Oc2ccc(CCNC(C)=O)c(-c3cccc(F)c3)c2)OC1(C)C (single isomer, unassigned) [Form 4]
neuronal protective activity [1]: high neuronal protective activity
potency in Hsp70-independent inhibition of Hsp90 [2]: excellent potency

AUC(0-t) [3]: 2880 ng·h/mL
Cmax [3]: 6760 ng/mL
Tmax [3]: 15 min
concentration at 0.5 h [3]: 3060 ± 1600 ng/mL
concentration at 1 h [3]: 359 ± 140 ng/mL
concentration at 2 h [3]: 80.7 ± 116 ng/mL
concentration at 4 h [3]: 2.28 ± 0.92 ng/mL
concentration at 8 h [3]: 4.01 ± 4.34 ng/mL
4a Plasma Concentration, mean (±SD) ([4]; capsule 50 mg, 24 hr, BLQ values included as 1/2 LLOQ (0.200 ng/mL)): 6.11 ± 9.23^c ng/mL
concentration at 0.5 h [4, 6]: 129 ± 92 ng/mL
concentration at 1 h [4, 6]: 128 ± 56 ng/mL
concentration at 2 h [4, 6]: 80.2 ± 26.4 ng/mL
concentration at 4 h [4, 6]: 14.1 ± 5.5 ng/mL
concentration at 8 h [4, 6]: 1.2 ± 0.45 ng/mL
AUC(0-t) [4, 7]: 307 ± 96 ng·h/mL
Cmax [4, 7]: 160 ± 78 ng/mL
Tmax [4, 7]: 30 min
concentration at […] ([4]; male, cynomolgus, cynomolgus monkey, plasma, oral, capsule 50 mg, 0.25 hr, read-out: 4a Plasma Concentration, mean (±SD)): 15.9 ± 12.9 ng/mL
concentration at 0.5 h [4, 8]: 12.3 ± 5.5 ng/mL
concentration at 1 h [4, 8]: 5.97 ± 0.95 ng/mL
concentration at 2 h [4, 9]: 1.9 ± 1.89 ng/mL
concentration at 4 h [4, 9]: 0.2 ng/mL
concentration at 8 h [4, 9]: 0.951 ± 1.3 ng/mL
concentration at 12 h ([4]; male, cynomolgus, cynomolgus monkey, plasma, oral, capsule 50 mg, 12 hr, BLQ values included as 1/2 LLOQ (0.200 ng/mL), read-out: 4a Plasma Concentration, mean (±SD)): 3.53 ± 5.78 ng/mL
concentration at 24 h ([4]; male, cynomolgus, cynomolgus monkey, plasma, oral, loose-filled capsule 50 mg, 24 hours post-dose (secondary peak), read-out: mean (±SD) 4a plasma concentration): 6.11 ± 9.23 ng/mL
AUC(0-t) [4, 10]: 81.6 ± 105 ng·h/mL
Cmax [4, 10]: 19.7 ± 9.4 ng/mL
Tmax [4, 10]: 15 min
4a Plasma Concentration, mean (±SD) ([4]; oral gavage suspension 30 mg/kg, 12 hr): BLQ^d
4a Plasma Concentration, mean (±SD) ([4]; oral gavage suspension 30 mg/kg, 24 hr): BLQ^d
concentration at […] [5]: 103 ± 71 ng/mL
Compound: CO[C@@H]1[C@@H](O)[C@@H](O)[C@H](Oc2ccc(CCNC(C)=O)c(-c3cccc(F)c3)c2)OC1(C)C [amorphous 4a, N-(2-(5-(((2R,3R,4S,5R)-3,4-dihydroxy-5-methoxy-6,6-dimethyltetra-hydro-2H-pyran-2-yl)oxy)-3′-fluoro-[1,1′-biphenyl]-2-yl)ethyl)-acetamide]

— patent US11401294B2, “Co-crystal forms of a novobiocin analog and proline” (Reata Pharmaceuticals, Inc., priority 2018, dated 2022)
